Experimental data published in PubChem BioAssay AID1963843 (Molecular Pharmacology Branch, DTP, NCI, 2024).
Values joined by “and” are separate entries in the source; they are usually repeats but may differ in a detail not shown here. Equal entries are not always repeated.

System: 616215-338-R-J1-PDC complex spheroid viability
Assay: Anticancer human tumor 616215-338-R-J1-PDC patient-derived colon adenocarcinoma cell line growth inhibition [POLQ]
Settings: for viability, T/C: stronger effect = lower value
Experimental: Multicellular complex tumor spheroid response to Polymerase (POL) inhibitors (novobiocin, ART-558, RP6685) in combination with a variety of drugs and investigational agents in selected tumor cell lines
The POL inhibitors (novobiocin, ART-558, and RP6685) were evaluated both individually and in combination with standard of care and investigational anticancer small molecules within a complex spheroid model of solid tumors. . Complex spheroids include a stromal component modeled by human endothelial cells (HUVEC) and fibroblasts modeled by human mesenchymal stem cells (MSCs). The concentration ranges selected for each drug and investigational agent were based upon clinically achievable concentrations if the clinical Cmax of the agent was known.
Compounds. The drugs and investigational agents: novobiocin (NSC847541), ART-558 (NSC835418), RP-6685 (NSC848927), peposertib (NSC802822), ceralasertib (NSC780249), elimusertib (NSC800525), camonsertib (NSC841442), AZD-1390 (NSC803789), olaparib (NSC753686), talazoparib (NSC767125), rucaparib (NSC756644), sotorasib (NSC818433), MRTX-1133 (NSC836407), SN-38 (NSC673596), topotecan (NSC609699), epotoside (NSC141540), doxorubicin (NSC123127), gemcitabine (NSC613327), 5-fluorouracil (NSC19893), paclitaxel (NSC125973), vemurafenib (NSC761431), MSA-2 (NSC828583), SN-011 (NSC837082), adavosertib (NSC754352), prexasertib (NSC758257), carboplatin (NSC241240) and oxaliplatin (NSC266046), were obtained from the National Cancer Institute (NCI) Developmental Therapeutics Program Chemical Repository (21). The FDA-approved anticancer drug set is available from the Developmental Therapeutics Program at https://dtp.cancer.gov/organization/dscb/obtaining/. […] The stock solutions were prepared in dimethyl sulfoxide (DMSO, Sigma-Aldrich, St. Louis, MO, cat. D2650), except for the platinum compounds which were prepared in saline (Quality Biological, Gaithersburg, MD, cat. 114-055-101), at 800-fold the tested concentration and stored at -70 degrees C prior to their use. All drugs and investigational agents were tested over a range starting from a high concentration at or near the clinical Cmax and decreasing in half-log increments. If the clinical Cmax for an agent had not been determined, the highest concentration tested was 10 microM, except for SN-38, which was tested at a high concentration of 1 microM.
Cell Culture. All cells were maintained in an incubator at 37 degrees C and 5% CO2 with 95% humidity. The PDC lines were cultured according to standard operating procedures established by the NCI PDMR (https://pdmr.cancer.gov). Table 3 of the manuscript, lists the cell lines along with the number of the three cell types plated to form the mct-spheroids and media for tumor cell growth. After thawing, all PDC lines, except 997537-175-T-J1-PDC and 415267-285-R-J2-PDC, were cultured in Matrigel-coated flasks prepared with a working solution of 1X Ham's F-12 nutrient mix, without supplementation (Thermo Fisher Scientific, cat. 11765054), 100 U/mL penicillin-streptomycin (Thermo Fisher Scientific, cat. 15140122), and 2.5% Matrigel (Corning Inc., Corning, NY, cat. 354248) for the first three passages. The two PDC lines 997537-175-T-J1-PDC and 415267-285-R-J2-PDC were cultured on uncoated flasks. The 857933-349-R-J2-PDC line was cultured in 6C/Colon 1B media containing advanced DMEM/F-12 (Thermo Fisher Scientific, cat. 12634028), 10 mM HEPES (Thermo Fisher Scientific, cat. 15630080), 1X GlutaMAX supplement (Thermo Fisher Scientific, cat. 35050061), 0.1 mg/mL primocin (InvivoGen, San Diego, CA, cat. ant-pm-2), 10% defined fetal bovine serum, heat inactivated (HyClone Laboratories Inc., Logan, UT, cat. SH30070.03HI), 50% L-WRN conditioned media (ATCC, cat. CRL-3276), 1.25 mM N-Acetyl-L-cysteine (Sigma-Aldrich, cat. A9165), 10 mM nicotinamide (Sigma-Aldrich, cat. N0636), 1X B-27 supplement (Thermo Fisher Scientific, cat. 17504044), 1X N-2 supplement (Thermo Fisher Scientific, cat. […]

[1] = curve of first compound, second compound 0.0316 µM
[2] = curve of first compound, second compound 0.1 µM
[3] = curve of first compound, second compound 0.316 µM
[4] = curve of first compound, second compound 1 µM
[5] = curve of first compound, second compound 3.16 µM
[6] = curve of first compound, second compound 10 µM
[7] = second compound 0.0316 µM, first compound 0.0316 µM
[8] = second compound 0.0316 µM, first compound 0.1 µM
[9] = second compound 0.0316 µM, first compound 0.316 µM
[10] = second compound 0.0316 µM, first compound 1 µM
[11] = second compound 0.0316 µM, first compound 3.16 µM
[12] = second compound 0.0316 µM, first compound 10 µM
[13] = second compound 0.1 µM, first compound 0.0316 µM
[14] = second compound 0.1 µM, first compound 0.1 µM
[15] = second compound 0.1 µM, first compound 0.316 µM
[16] = second compound 0.1 µM, first compound 1 µM
[17] = second compound 0.1 µM, first compound 3.16 µM
[18] = second compound 0.1 µM, first compound 10 µM
[19] = second compound 0.316 µM, first compound 0.0316 µM
[20] = second compound 0.316 µM, first compound 0.1 µM
[21] = second compound 0.316 µM, first compound 0.316 µM
[22] = second compound 0.316 µM, first compound 1 µM
[23] = second compound 0.316 µM, first compound 3.16 µM
[24] = second compound 0.316 µM, first compound 10 µM
[25] = second compound 1 µM, first compound 0.0316 µM
[26] = second compound 1 µM, first compound 0.1 µM
[27] = second compound 1 µM, first compound 0.316 µM
[28] = second compound 1 µM, first compound 1 µM
[29] = second compound 1 µM, first compound 3.16 µM
[30] = second compound 1 µM, first compound 10 µM
[31] = second compound 3.16 µM, first compound 0.0316 µM
[32] = second compound 3.16 µM, first compound 0.1 µM
[33] = second compound 3.16 µM, first compound 0.316 µM
[34] = second compound 3.16 µM, first compound 1 µM
[35] = second compound 3.16 µM, first compound 3.16 µM
[36] = second compound 3.16 µM, first compound 10 µM
[37] = second compound 10 µM, first compound 0.0316 µM
[38] = second compound 10 µM, first compound 0.1 µM
[39] = second compound 10 µM, first compound 0.316 µM
[40] = second compound 10 µM, first compound 1 µM
[41] = second compound 10 µM, first compound 3.16 µM
[42] = second compound 10 µM, first compound 10 µM
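Note: spheroids exposed to compounds for one week before readout.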
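Throughout, for viability, T/C: percent viability relative to DMSO vehicle wells taken as 100%.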

Structure (SMILES): COC1C(OC(N)=O)C(O)C(Oc2ccc3c(O)c(NC(=O)c4ccc(O)c(CC=C(C)C)c4)c(=O)oc3c2C)OC1(C)C (configuration not stated)
- viability, T/C (compound 0.0316 µM): 101% [middle of 13 runs]
- viability, T/C (compound 0.1 µM): 102% [middle of 12 runs]
- viability, T/C (compound 0.316 µM): 103% [middle of 13 runs]
- viability, T/C (compound 1 µM): 99.2% [middle of 13 runs]
- viability, T/C (compound 3.16 µM): 101% [middle of 13 runs]
- viability, T/C (compound 10 µM): 100% [middle of 13 runs]
- IC50 (compound alone, run of 11/27/2023): > 10 µM

Structure (SMILES): COc1cc2cc(C(=O)CCC(=O)O)sc2cc1OC + Nc1ccc(C#CCN(C(=O)Cc2ncc(C(F)(F)F)cc2C(F)(F)F)c2ccc(F)cc2)nn1
- IC50 [1]: > 10 µM
- IC50 [2]: > 10 µM
- IC50 [3]: > 10 µM
- IC50 [4]: > 10 µM
- IC50 [5]: > 10 µM
- IC50 [6]: > 10 µM
- viability, T/C [7]: 109%
- viability, T/C [8]: 105%
- viability, T/C [9]: 110%
- viability, T/C [10]: 108%
- viability, T/C [11]: 109%
- viability, T/C [12]: 102%
- viability, T/C [13]: 108%
- viability, T/C [14]: 106%
- viability, T/C [15]: 117%
- viability, T/C [16]: 104%
- viability, T/C [17]: 119%
- viability, T/C [18]: 108%
- viability, T/C [19]: 112%
- viability, T/C [20]: 108%
- viability, T/C [21]: 105%
- viability, T/C [22]: 108%
- viability, T/C [23]: 113%
- viability, T/C [24]: 99.9%
- viability, T/C [25]: 110%
- viability, T/C [26]: 102%
- viability, T/C [27]: 101%
- viability, T/C [28]: 113%
- viability, T/C [29]: 115%
- viability, T/C [30]: 102%
- viability, T/C [31]: 108%
- viability, T/C [32]: 101%
- viability, T/C [33]: 108%
- viability, T/C [34]: 103%
- viability, T/C [35]: 107%
- viability, T/C [36]: 101%
- viability, T/C [37]: 95.3%
- viability, T/C [38]: 91.1%
- viability, T/C [39]: 86.8%
- viability, T/C [40]: 97.2%
- viability, T/C [41]: 89.3%
- viability, T/C [42]: 79.2%

Structure (SMILES): O=c1[nH]cc(F)c(=O)[nH]1
- viability, T/C (compound 0.0316 µM): 83.7% and 97.8% and 96%
- viability, T/C (compound 0.1 µM): 96.6% and 86.5% and 89.8%
- viability, T/C (compound 0.316 µM): 68.4% and 54.6% and 65.8%
- viability, T/C (compound 1 µM): 65.9% and 43.5% and 65.6%
- viability, T/C (compound 3.16 µM): 63.8% and 43.7% and 60.7%
- viability, T/C (compound 10 µM): 62.4% and 39.2% and 60.1%

Structure (SMILES): CC(C)n1c(=O)n(C)c2cnc3cc(F)c(-c4ccc(OCCCN5CCCCC5)nc4)cc3c21 + Cc1cccc(N(C)C(=O)C2C(O)CCN2c2nc(C)cc(C(F)(F)F)c2C#N)c1
- IC50 [1]: > 10 µM
- IC50 [2]: > 10 µM
- IC50 [3]: > 10 µM
- IC50 [4]: > 10 µM
- IC50 [5]: > 10 µM
- IC50 [6]: > 10 µM
- viability, T/C [7]: 95.4%
- viability, T/C [8]: 98.2%
- viability, T/C [9]: 99.1%
- viability, T/C [10]: 111%
- viability, T/C [11]: 108%
- viability, T/C [12]: 114%
- viability, T/C [13]: 109%
- viability, T/C [14]: 113%
- viability, T/C [15]: 106%
- viability, T/C [16]: 102%
- viability, T/C [17]: 105%
- viability, T/C [18]: 105%
- viability, T/C [19]: 102%
- viability, T/C [20]: 97.8%
- viability, T/C [21]: 94.5%
- viability, T/C [22]: 107%
- viability, T/C [23]: 117%
- viability, T/C [24]: 103%
- viability, T/C [25]: 101%
- viability, T/C [26]: 99.8%
- viability, T/C [27]: 102%
- viability, T/C [28]: 117%
- viability, T/C [29]: 114%
- viability, T/C [30]: 113%
- viability, T/C [31]: 105%
- viability, T/C [32]: 101%
- viability, T/C [33]: 108%
- viability, T/C [34]: 114%
- viability, T/C [35]: 108%
- viability, T/C [36]: 102%
- viability, T/C [37]: 108%
- viability, T/C [38]: 114%
- viability, T/C [39]: 105%
- viability, T/C [40]: 109%
- viability, T/C [41]: 108%
- viability, T/C [42]: 95.4%
